Where two headings read alike, the source gives them in different places. Numbered stars: 1 amine (or outer) side, 2 acyl side, 3 side chain; on linkers, the order of the positions; unused ones are H or OH. Square brackets hold non-standard residues; d marks the D form. Side chains are listed from the residue outwards. Peptide text beside a SMILES is read from it. * marks the point of attachment. γGlu = O=C(O)[C@H](CCC(=O)[*:2])N[*:1]; αMeF = C[C@](N)(Cc1ccccc1)C(=O)O; αMeK = C[C@](N)(CCCCN)C(=O)O; Lauroyl = CCCCCCCCCCCC(=O)*; αMeS = C[C@](N)(CO)C(=O)O; AEEA = NCCOCCOCC(=O)O; Aib = CC(C)(N)C(=O)O
What was measured:
[1] = biological target: porcine pancreatic trypsin (Sus scrofa, UniProt P00761); assay: Proteolytic resistance to trypsin (% remaining intact peptide, RP-HPLC AUC); type: in vitro ADME; conditions: t = 0; 37° C., pH 7.8
Protocol: Trypsin: Lyophilized porcine pancreatic trypsin (Sigma: T1426) was reconstituted to afford a solution of 100 μg/mL (˜300 units/mL) in assay buffer (50 mM Tris, 10 mM CaCl2), 150 mM NaCl, 1 mM HCl, adjusted to pH 7.8) to give the enzyme stock solution. […] Ratio enzyme (units):peptide (μmoles) ˜1:11. […] Ratio enzyme (units):peptide (μ moles) ˜1.2:1.
Lyophilized porcine pancreatic trypsin (Sigma: T7409) was reconstituted to 200 μg/mL (˜300 units/mL) in assay buffer (50 mM Tris, 10 mM CaCl2), 150 mM NaCl, 1 mM HCl, adjusted to pH 7.8) to give the enzyme stock solution. […] 15 μL aliquots (˜15 μg initial peptide) of the peptide-enzyme mixture were periodically withdrawn (t=0, 30 mins, 1 hr, 2 hr, 4 hr, 8 hr, 24 hr) and quenched immediately by addition to an equal volume (15 μL) of 5% TFA (v/v) in 1:1 water/acetonitrile to arrest proteolytic activity. 20 μL aliquots (˜10 μg initial peptide) were analysed by LC/MS and/or analytical RP-HPLC as follows: LC/MS method: Agilent Polaris C8-A column (4.6×100 mm, 3 micron) eluted with a linear binary gradient of 10-90% MeCN (0.1% TFA v/v) in water (0.1% TFA v/v) over 30 mins at 1.5 mL min^−1 at ambient temperature with detection by both UV absorption at 210 nm and ionization using a Waters 3100 mass detector (ESI^+ mode). Peptide fragments deriving from enzymatic hydrolysis were identified by molecular weight, allowing location of the site of cleavage. Analytical RP-HPLC method: Agilent Polaris C8-A column (4.6×100 mm, 3 micron) eluted with a linear binary gradient of 10-90% MeCN (0.1% TFA v/v) in water (0.1% TFA v/v) over either 10 or 15 mins at 1.5 mL min^−1 at 40° C. with detection by UV absorption at 210 nm. Manual integration (AUC) allowed estimation of remaining intact peptide over the time course of the experiment.
Lyophilized porcine pancreatic trypsin (Sigma: T7409) was reconstituted to 200 μg/mL (˜300 units/mL) in assay buffer (50 mM Tris, 10 mM CaCl2), 150 mM NaCl, 1 mM HCl, adjusted to pH 7.8) to give the enzyme stock solution. […] 25 μL aliquots (˜17 μg initial peptide) of the peptide-enzyme mixture were periodically withdrawn (t=0, 30 mins, 1 hr, 2 hr, 4 hr, 8 hr, 24 hr) and quenched immediately by addition to an equal volume (25 μL) of 5% TFA (v/v) in 1:1 water/acetonitrile to arrest proteolytic activity. 25 μL aliquots (˜8 μg initial peptide) were analysed by LC/MS and/or analytical RP-HPLC as follows: LC/MS method: Agilent Polaris C8-A column (4.6×100 mm, 3 micron) eluted with a linear binary gradient of 10-90% MeCN (0.1% TFA v/v) in water (0.1% TFA v/v) over 30 mins at 1.5 mL min^−1 at ambient temperature with detection by both UV absorption at 210 nm and ionization using a Waters 3100 mass detector (ESI^+ mode). Peptide fragments deriving from enzymatic hydrolysis were identified by molecular weight, allowing location of the site of cleavage. Analytical RP-HPLC method: Agilent Polaris C8-A column (4.6×100 mm, 3 micron) eluted with a linear binary gradient of 10-90% MeCN (0.1% TFA v/v) in water (0.1% TFA v/v) over either 10 or 15 mins at 1.5 mL min^−1 at 40° C. with detection by UV absorption at 210 nm. Manual integration (AUC) allowed estimation of remaining intact peptide over the time course of the experiment.

[2] = system: FASSIF/Pancreatin® activated with 100 μg/mL human enterokinase; assay: Proteolytic resistance to FASSIF/Pancreatin following full zymogen activation with enterokinase; type: in vitro ADME; conditions: t = 0; 37° C.
Protocol: A fresh suspension of FASSIF/P (Fasted-State Simulated Intestinal Fluid+USP Pancreatin®) was prepared according to that described by Galia, Nicolaides, Hörter, Lobenberg, Reppas and Dressman: Pharm. […] To the resulting preparation was added human enterokinase (100 μg/mL) to ensure the potential for full zymogen activity of the mixture which was used immediately without storage. Peptides for evaluation (1.0 mg, ˜250 nmoles) were initially dissolved in pre-warmed FASSIF without Pancreatin® (200 μL) to which was added pre-warmed fresh FASSIF/Pancreatin® ([…]) to initiate potential digestion. Following momentary vortexing of the Eppendorf reaction tube the mixture was incubated at 37° C. in a thermostatic waterbath for the duration of the experiment. 25 μL aliquots of the co-incubated peptide-enzyme mixture were periodically withdrawn (t=0, 5 m, 10 m, 15 m, 30 m, 1 h, 2 h) and quenched immediately by addition to a solution of 10% TFA in 1:1 water/acetonitrile (75 μL) to arrest proteolytic activity.

recombinant Neprilysin = biological target: T1, recombinant Neprilysin (Homo sapiens, UniProt P08473); assay: Proteolytic resistance to neprilysin (% remaining peptide, RP-HPLC AUC); type: in vitro ADME; conditions: t = 0 (baseline); 37° C., pH 8.3; enzyme:peptide ~1:33 for non-lipidated, ~1:2.5 for lipidated peptides
T1 construct: purchased R&D Systems 1182-ZNC-010
Protocol: Ratio enzyme (units):peptide (moles) ˜1:33. […] Ratio enzyme (units):peptide (moles) ˜1:2.5.
15 μL aliquots (˜15 ng initial peptide) of the peptide-enzyme mixture were periodically withdrawn (t=0, 30 mins, 1 hr, 2 hr, 4 hr, 8 hr, 24 hr) and quenched immediately by addition to an equal volume (15 μL) of 5% TFA (v/v) in 1:1 water/acetonitrile to arrest proteolytic activity. 20 μL aliquots (˜10 ng initial peptide) were analyzed by LC/MS and/or analytical RP-HPLC as follows: LC/MS method: Agilent Polaris C8-A column (4.6×100 mm, 3 micron) eluted with a linear binary gradient of 10-90% MeCN (0.1% TFA v/v) in water (0.1% TFA v/v) over 30 mins at 1.5 mL min-1 at ambient temperature with detection by both UV absorption at 210 nm and ionization using a Waters 3100 mass detector (ESI+ mode). Peptide fragments deriving from enzymatic hydrolysis were identified by molecular weight, allowing location of the site of cleavage. Analytical RP-HPLC method: Agilent Polaris C8-A column (4.6×100 mm, 3 micron) eluted with a linear binary gradient of 10-90% MeCN (0.1% TFA v/v) in water (0.1% TFA v/v) over either 10 or 15 mins at 1.5 mL min^−1 at 40° C. with detection by UV absorption at 210 nm. Manual integration (AUC) allowed estimation of remaining intact peptide over the time course of the experiment.
25 μL aliquots (˜6 μg initial peptide) were analyzed by LC/MS and/or analytical RP-HPLC as follows: LC/MS method: Agilent Polaris C8-A column (4.6×100 mm, 3 micron) eluted with a linear binary gradient of 10-90% MeCN (0.1% TFA v/v) in water (0.1% TFA v/v) over 30 mins at 1.5 mL min^−1 at ambient temperature with detection by both UV absorption at 210 nm and ionization using a Waters 3100 mass detector (ESI^+ mode). Peptide fragments deriving from enzymatic hydrolysis were identified by molecular weight, allowing location of the site of cleavage. Analytical RP-HPLC method: Agilent Polaris C8-A column (4.6×100 mm, 3 micron) eluted with a linear binary gradient of 10-90% MeCN (0.1% TFA v/v) in water (0.1% TFA v/v) over either 10 or 15 mins at 1.5 mL min^−1 at 40° C. with detection by UV absorption at 210 nm. Manual integration (AUC) allowed estimation of remaining intact peptide over the time course of the experiment.

[3] = system: recombinant α-chymotrypsin; assay: Proteolytic resistance to α-chymotrypsin (% remaining intact peptide, RP-HPLC AUC); conditions: t = 0; 37° C., pH 7.8
Protocol: (§3) Ratio enzyme (units):peptide (μmoles) ˜1:33. […] Ratio enzyme (units):peptide (μmoles) ˜1:2.5.
(§4) 15 μL aliquots (˜15 μg initial peptide) of the peptide-enzyme mixture are periodically withdrawn (t=0, 30 mins, 1 hr, 2 hr, 4 hr, 8 hr, 24 hr) and quenched immediately by addition to an equal volume (15 μL) of 5% TFA (v/v) in 1:1 water/acetonitrile to arrest proteolytic activity. 20 μL aliquots (˜10 μg initial peptide) are analysed by LC/MS and/or analytical RP-HPLC as follows: LC/MS method: Agilent Polaris C8-A column (4.6×100 mm, 3 micron) elutes with a linear binary gradient of 10-90% MeCN (0.1% TFA v/v) in water (0.1% TFA v/v) over 30 mins at 1.5 mL min^−1 at ambient temperature with detection by both UV absorption at 210 nm and ionization using a Waters 3100 mass detector (ESI^+ mode). Peptide fragments deriving from enzymatic hydrolysis are identified by molecular weight, allowing location of the site of cleavage. Analytical RP-HPLC method: Agilent Polaris C8-A column (4.6×100 mm, 3 micron) elutes with a linear binary gradient of 10-90% MeCN (0.1% TFA v/v) in water (0.1% TFA v/v) over either 10 or 15 mins at 1.5 mL min^−1 at 40° C. with detection by UV absorption at 210 nm. Manual integration (AUC) allows estimation of remaining intact peptide over the time course of the experiment.
(§5) 25 μL aliquots (˜6 μg initial peptide) are analysed by LC/MS and/or analytical RP-HPLC as follows: LC/MS method: Agilent Polaris C8-A column (4.6×100 mm, 3 micron) elutes with a linear binary gradient of 10-90% MeCN (0.1% TFA v/v) in water (0.1% TFA v/v) over 30 mins at 1.5 mL min^−1 at ambient temperature with detection by both UV absorption at 210 nm and ionization using a Waters 3100 mass detector (ESI±mode). Peptide fragments deriving from enzymatic hydrolysis are identified by molecular weight, allowing location of the site of cleavage. Analytical RP-HPLC method: Agilent Polaris C8-A column (4.6×100 mm, 3 micron) elutes with a linear binary gradient of 10-90% MeCN (0.1% TFA v/v) in water (0.1% TFA v/v) over either 10 or 15 mins at 1.5 mL min^−1 at 40° C. with detection by UV absorption at 210 nm. Manual integration (AUC) allows estimation of remaining intact peptide over the time course of the experiment.

[4] = as above; conditions: recombinant α-chymotrypsin in assay buffer, pH 7.8
Protocol: as §3, §4, §5

[5] = biological target: T2, human glucagon receptor (GCGR) (Homo sapiens, UniProt P47871); assay: cAMP assay, human GCGR cells; type: cell-based; conditions: Table 9, bis-lipidated peptides
T2 construct: expressed in transfected cells; host or cells: HEK293 cells or CHO cells
Method in brief: (§1)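 Peptide-stimulated cAMP measured by two-step HTRF after a 30 min room-temperature incubation with receptor-expressing cells (hGLP-1R, hGIPR at 1×10^5 cells/ml; hGCGR at 2×10^5 cells/ml). Duplicate dilutions; EC50 from 4-parameter logistic fit of % Delta F.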

[6] = biological target: T3, porcine pancreatic pepsin (Sus scrofa, UniProt P00791); assay: Proteolytic resistance to pepsin (% remaining intact peptide, RP-HPLC AUC); type: in vitro ADME; conditions: t = 0; 37° C., pH 2.0
T3 construct: purchased Sigma P7012
Protocol: Pepsin: Lyophilized porcine pancreatic pepsin (Sigma: P7012) was reconstituted to afford a solution of 200 μg/mL (˜500 units/mL) in assay buffer (0.1 M HCl, pH 2.0) to give the enzyme stock solution. […] Ratio enzyme (units):peptide (moles) ˜1:6. […] Ratio enzyme (units):peptide (μmoles) ˜2:1.
Lyophilized porcine pancreatic pepsin (Sigma: P7012) was reconstituted to […] (˜500 units/mL) in assay buffer ([…], pH 2.0) to give the enzyme stock solution.

[7] = biological target: T4, human glucose-dependent insulinotropic peptide receptor (GIPR) (Homo sapiens, UniProt P48546); assay: cAMP assay, human GIPR cells; type: cell-based; conditions: Table 9, bis-lipidated peptides
T4 construct: expressed in transfected cells; host or cells: HEK293 cells or CHO cells
T4 sequence (P48546 22-466): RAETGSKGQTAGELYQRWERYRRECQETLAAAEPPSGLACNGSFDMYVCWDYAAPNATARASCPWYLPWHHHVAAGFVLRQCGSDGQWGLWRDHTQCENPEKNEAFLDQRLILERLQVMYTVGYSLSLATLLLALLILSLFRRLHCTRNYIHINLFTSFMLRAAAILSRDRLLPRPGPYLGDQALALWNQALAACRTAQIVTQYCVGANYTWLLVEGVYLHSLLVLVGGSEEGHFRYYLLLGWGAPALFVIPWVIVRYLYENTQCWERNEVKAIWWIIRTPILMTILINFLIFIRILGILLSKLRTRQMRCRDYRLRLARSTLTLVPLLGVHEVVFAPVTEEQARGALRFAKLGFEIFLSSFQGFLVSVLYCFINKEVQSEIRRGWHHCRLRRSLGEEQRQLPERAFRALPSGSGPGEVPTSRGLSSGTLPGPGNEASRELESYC
Method in brief: as §1

[8] = Proteolytic resistance to fasted-state simulated intestinal fluid (FASSIF/Pancreatin); type: in vitro ADME; conditions: 37° C., read-out: Percentage remaining intact peptide (AUC by RP-HPLC) upon incubation with fasted-state simulated intestinal fluid (FASSIF/P)
Protocol: (§2) A fresh suspension of FASSIF/P (Fasted-State Simulated Intestinal Fluid+USP Pancreatin®) was prepared according to that described by Galia, Nicolaides, Hörter, Lobenberg, Reppas and Dressman: Pharm. Res. 15 (1998) 698-705. The resulting preparation is proteolytically equivalent to ˜375 units/mL (375 kU/L) and was used immediately without storage. Peptides for evaluation (1.0 mg, ˜250 nmoles) were initially dissolved in pre-warmed FASSIF without Pancreatin® (200 μL) to which was added pre-warmed fresh FASSIF/Pancreatin® (100 μL) to initiate potential digestion. Following momentary vortexing of the Eppendorf reaction tube the mixture was incubated at 37° C. in a thermostatic waterbath for the duration of the experiment. 25 μL aliquots of the co-incubated peptide-enzyme mixture were periodically withdrawn (t=0, 5 m, 10 m, 15 m, 30 m, 1 h, 2 h) and quenched immediately by addition to a solution of 10% TFA in 1:1 water/acetonitrile (75 μL) to arrest proteolytic activity.

[9] = system: FASSIF/P (Fasted-State Simulated Intestinal Fluid+USP Pancreatin®); assay: as above; type: in vitro ADME; conditions: t = 0; 37° C.
Protocol: as §2

[10] = biological target: T5, human GLP-1 receptor (GLP-1R) (Homo sapiens, UniProt P43220); assay: cAMP assay, human GLP-1R cells; type: cell-based; conditions: Table 9, bis-lipidated peptides; mean of n1 and n2; read-out: Primary assay EC50 Mean pM GLP-1R
T5 construct: expressed in transfected cells; host or cells: HEK293 cells or CHO cells
Method in brief: as §1

GLP-1R (INS1e cells) = biological target: T6, GLP-1R (INS1e cells) (Rattus norvegicus, UniProt P32301); assay: INS1e assay, cAMP activity at GLP-1R; type: cell-based; conditions: Table 10, bis-lipidated peptides, mean of n1 and n2, read-out: INS1e assay EC50 Mean pM GLP-1R
T6 construct: endogenous in cells; host or cells: INS1e cells
T6 sequence (P32301 22-463): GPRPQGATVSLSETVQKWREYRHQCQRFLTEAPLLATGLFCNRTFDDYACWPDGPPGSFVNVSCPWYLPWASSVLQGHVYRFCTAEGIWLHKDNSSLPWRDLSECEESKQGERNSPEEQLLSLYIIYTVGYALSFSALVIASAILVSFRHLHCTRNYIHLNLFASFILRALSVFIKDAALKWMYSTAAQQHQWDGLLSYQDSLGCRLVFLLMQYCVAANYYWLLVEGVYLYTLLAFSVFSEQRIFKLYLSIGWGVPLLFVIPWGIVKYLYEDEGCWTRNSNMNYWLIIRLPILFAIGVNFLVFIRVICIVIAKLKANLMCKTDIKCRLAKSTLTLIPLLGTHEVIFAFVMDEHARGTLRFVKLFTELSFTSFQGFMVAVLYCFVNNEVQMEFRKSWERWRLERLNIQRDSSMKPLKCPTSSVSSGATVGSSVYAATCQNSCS

[11] = first replicate, read-out: Primary assay EC50 Gluc-R (n1)
[12] = second replicate, read-out: Primary assay EC50 Gluc-R (n2)
[13] = first replicate, read-out: Primary assay EC50 GIP-R (n1)
[14] = second replicate, read-out: Primary assay EC50 GIP-R (n2)

T2 sequence (P47871 26-477): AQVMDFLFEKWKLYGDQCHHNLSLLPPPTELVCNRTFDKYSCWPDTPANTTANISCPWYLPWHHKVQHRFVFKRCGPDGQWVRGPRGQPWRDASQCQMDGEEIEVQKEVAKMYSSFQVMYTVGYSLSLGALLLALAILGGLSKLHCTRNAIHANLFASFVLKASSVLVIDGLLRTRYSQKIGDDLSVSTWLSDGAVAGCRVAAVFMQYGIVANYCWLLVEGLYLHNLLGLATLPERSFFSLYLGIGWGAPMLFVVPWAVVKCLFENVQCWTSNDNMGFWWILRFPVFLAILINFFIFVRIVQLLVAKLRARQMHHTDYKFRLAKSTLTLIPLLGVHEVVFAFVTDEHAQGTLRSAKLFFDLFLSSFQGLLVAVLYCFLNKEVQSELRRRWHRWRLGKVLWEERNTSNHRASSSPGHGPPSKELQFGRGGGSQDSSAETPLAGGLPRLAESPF
T5 sequence (P43220 24-463): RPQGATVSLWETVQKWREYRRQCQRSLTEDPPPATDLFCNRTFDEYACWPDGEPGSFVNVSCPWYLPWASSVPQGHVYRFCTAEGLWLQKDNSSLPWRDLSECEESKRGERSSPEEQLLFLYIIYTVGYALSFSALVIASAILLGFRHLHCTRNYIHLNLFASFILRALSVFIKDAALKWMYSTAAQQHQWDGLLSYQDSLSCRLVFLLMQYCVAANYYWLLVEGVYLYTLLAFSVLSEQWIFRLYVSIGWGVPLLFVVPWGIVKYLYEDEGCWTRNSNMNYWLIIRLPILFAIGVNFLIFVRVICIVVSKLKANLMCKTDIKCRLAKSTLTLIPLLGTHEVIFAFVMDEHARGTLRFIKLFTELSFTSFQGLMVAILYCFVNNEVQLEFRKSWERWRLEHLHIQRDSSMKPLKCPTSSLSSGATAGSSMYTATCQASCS
Sequence of porcine pancreatic trypsin (P00761 9-231): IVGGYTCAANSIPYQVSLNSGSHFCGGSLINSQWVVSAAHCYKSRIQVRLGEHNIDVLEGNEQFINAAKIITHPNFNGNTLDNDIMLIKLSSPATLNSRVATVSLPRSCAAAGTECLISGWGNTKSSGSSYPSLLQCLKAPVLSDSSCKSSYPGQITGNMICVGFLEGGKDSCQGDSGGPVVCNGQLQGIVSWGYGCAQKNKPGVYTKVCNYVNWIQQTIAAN
T3 sequence (P00791 60-385): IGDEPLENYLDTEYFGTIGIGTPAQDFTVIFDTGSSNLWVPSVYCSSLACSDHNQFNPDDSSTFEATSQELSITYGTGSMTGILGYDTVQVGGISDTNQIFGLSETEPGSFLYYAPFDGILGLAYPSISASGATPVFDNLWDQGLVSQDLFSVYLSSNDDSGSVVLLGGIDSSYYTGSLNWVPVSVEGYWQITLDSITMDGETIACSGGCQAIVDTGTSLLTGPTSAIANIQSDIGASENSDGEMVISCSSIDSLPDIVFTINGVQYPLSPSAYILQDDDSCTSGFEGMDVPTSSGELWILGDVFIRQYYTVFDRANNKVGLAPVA
T1 sequence (P08473 whole entry): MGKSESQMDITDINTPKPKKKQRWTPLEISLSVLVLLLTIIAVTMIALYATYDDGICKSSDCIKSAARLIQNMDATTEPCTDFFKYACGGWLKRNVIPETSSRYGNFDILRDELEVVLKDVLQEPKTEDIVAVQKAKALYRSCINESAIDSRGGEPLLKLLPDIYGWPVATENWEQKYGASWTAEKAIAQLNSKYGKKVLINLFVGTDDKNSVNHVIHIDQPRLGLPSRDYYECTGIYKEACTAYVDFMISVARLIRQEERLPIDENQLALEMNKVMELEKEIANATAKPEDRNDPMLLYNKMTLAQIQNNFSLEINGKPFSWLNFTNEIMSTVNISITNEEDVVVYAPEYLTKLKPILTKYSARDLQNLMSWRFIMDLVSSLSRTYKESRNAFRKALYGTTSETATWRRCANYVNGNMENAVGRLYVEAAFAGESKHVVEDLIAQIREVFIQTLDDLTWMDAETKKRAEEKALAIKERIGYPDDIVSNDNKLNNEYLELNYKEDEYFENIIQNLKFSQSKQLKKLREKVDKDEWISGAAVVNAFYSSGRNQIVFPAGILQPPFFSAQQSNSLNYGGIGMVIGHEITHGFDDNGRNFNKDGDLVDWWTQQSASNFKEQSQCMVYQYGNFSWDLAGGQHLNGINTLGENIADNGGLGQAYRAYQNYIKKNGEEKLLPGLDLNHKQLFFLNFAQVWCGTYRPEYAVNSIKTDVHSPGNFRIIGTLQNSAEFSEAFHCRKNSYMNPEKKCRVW

## CCCCCCCCCCCC(=O)N[C@@H](CCC(=O)NCCOCCOCC(=O)NCCOCCOCC(=O)NCCCC[C@H](NC(=O)[C@H](C)NC(=O)[C@@H](NC(=O)[C@H](Cc1ccccc1)NC(=O)[C@H](CCC(=O)O)NC(=O)[C@](C)(CCCCN)NC(=O)[C@H](C)NC(=O)[C@H](C)NC(=O)[C@H](CCC(=O)O)NC(=O)CNC(=O)[C@H](CCC(=O)O)NC(=O)[C@H](CCCCNC(=O)COCCOCCNC(=O)COCCOCCNC(=O)CC[C@H](NC(=O)CCCCCCCCCCC)C(=O)O)NC(=O)[C@H](Cc1ccc(O)cc1)NC(=O)[C@H](CO)NC(=O)[C@](C)(CO)NC(=O)[C@@H](NC(=O)[C@H](CC(=O)O)NC(=O)[C@H](CO)NC(=O)[C@@H](NC(=O)[C@](C)(Cc1ccccc1)NC(=O)[C@H](CO)NC(=O)CNC(=O)[C@H](CCC(=O)O)NC(=O)C(C)(C)NC(=O)[C@@H](N)Cc1c[nH]cn1)[C@@H](C)O)C(C)C)[C@@H](C)CC)C(=O)N[C@H](C(=O)N[C@H](C(=O)N[C@@H](CCC(=O)O)C(=O)NCC(=O)NCC(N)=O)C(C)C)C(C)C)C(=O)O [compound 269] (H-H[Aib]EGS[αMeF]TSDV[αMeS]SYK([AEEA-AEEA-γGlu-Lauroyl])EGEAA[αMeK]EFIAK([AEEA-AEEA-γGlu-Lauroyl])VVEGG-NH2; N-terminus assumed)
[1]
  Percentage remaining intact peptide (AUC by RP-HPLC) upon incubation with trypsin: 100%
[2]
  Percentage remaining intact peptide (AUC by RP-HPLC) upon incubation with FASSIF activated with 100 μg/mL enterokinase: 100%
Recombinant Neprilysin
  Percentage remaining peptide (AUC at specified time-point by RP-HPLC) upon incubation with neprilysin, t = 0: 100%
[3]
  Percentage remaining intact peptide (AUC by RP-HPLC) upon incubation with α-chymotrypsin: 100%
[4]
  remaining at 0.5 h: 97.1%
  remaining at 1 h: 95.8%
  remaining at 2 h: 96%
  remaining at 4 h: 94.2%
  remaining at 8 h: 92.6%
  remaining at 24 h: 89.4%
[5]; [11]
  EC50: ≥ 22.8 nM
[5]; [12]
  EC50: ≥ 22.8 nM
[6]
  Percentage remaining intact peptide (AUC by RP-HPLC) upon incubation with pepsin: 100%
[7]; [13]
  EC50: ≥ 22.8 nM
[7]; [14]
  EC50: ≥ 22.8 nM

## CCCCCCCCCCCC(=O)N[C@@H](CCC(=O)NCCOCCOCC(=O)NCCOCCOCC(=O)NCCCC[C@H](NC(=O)[C@H](C)NC(=O)[C@@H](NC(=O)[C@](C)(Cc1ccccc1)NC(=O)[C@H](CCC(=O)O)NC(=O)[C@](C)(CCCCN)NC(=O)[C@H](C)NC(=O)[C@H](C)NC(=O)[C@H](CCC(=O)O)NC(=O)CNC(=O)[C@H](CCC(=O)O)NC(=O)[C@H](CC(C)C)NC(=O)[C@H](CCCCNC(=O)COCCOCCNC(=O)COCCOCCNC(=O)CC[C@H](NC(=O)CCCCCCCCCCC)C(=O)O)NC(=O)[C@H](CO)NC(=O)[C@](C)(CO)NC(=O)[C@@H](NC(=O)[C@H](CC(=O)O)NC(=O)[C@H](CO)NC(=O)[C@@H](NC(=O)[C@](C)(Cc1ccccc1)NC(=O)[C@H](CO)NC(=O)CNC(=O)[C@H](CCC(=O)O)NC(=O)C(C)(C)NC(=O)[C@@H](N)Cc1c[nH]cn1)[C@@H](C)O)C(C)C)[C@@H](C)CC)C(=O)N[C@H](C(=O)N[C@H](C(=O)N[C@@H](CCC(=O)O)C(=O)NCC(=O)NCC(N)=O)C(C)C)C(C)C)C(=O)O [compound 405] (H-H[Aib]EGS[αMeF]TSDV[αMeS]SK([AEEA-AEEA-γGlu-Lauroyl])LEGEAA[αMeK]E[αMeF]IAK([AEEA-AEEA-γGlu-Lauroyl])VVEGG-NH2; N-terminus assumed)
[2]
  Percentage remaining intact peptide (AUC by RP-HPLC) upon incubation with FASSIF activated with 100 μg/mL enterokinase: 100%
[8]; t = 5 m
  remaining at 5 min, […]: 99.5%
[8]; t = 10 m
  remaining at 10 min, […]: 99%
[8]; t = 15 m
  remaining at 0.25 h, […]: 99.4%
[8]; t = 30 m
  remaining at 0.5 h, […]: 95.7%
[8]; t = 1 h
  remaining at 1 h, […]: 88.7%
[8]; t = 2 h
  remaining at 2 h, […]: 60.4%
[9]
  Percentage remaining intact peptide (AUC by RP-HPLC) upon incubation with fasted-state simulated intestinal fluid (FASSIF/P): 100%
[5]; [11]
  EC50: ≥ 21.5 nM
[5]; [12]
  EC50: ≥ 21.5 nM
[10]
  EC50: 3.9 pM
GLP-1R (INS1e cells)
  EC50: 116 pM
[7]; [13]
  EC50: ≥ 21.5 nM
[7]; [14]
  EC50: ≥ 21.5 nM

— US20210221866A1, “PROTEASE-RESISTANT LIPIDATED GLP-1 ANALOGS” (MEDIMMUNE LIMITED, priority 2015, published 2021)
